Laboratory results: patent publication US10738028B2, “Spiro three-membered ring, spiro five-membered ring peptide deformylase inhibitor and use thereof in antibacteria and anti-tumor” (priority 2016, dated 2020)
Where two headings read alike, the source gives them in different places.

What was measured:
Type in all cases: cell-based
[1] = tested on: A549 lung cancer cell line; test: CCK-8 proliferation inhibition; settings: concentration of 30 μM; for inhibition at 30 µM: Homo sapiens, A549, 72 h
Procedure, shortened: (§1)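 Plating at 2000 cells/well, then incubation overnight at 37° C. Next, a range of compound concentrations for 72 hours (control 1‰ DMSO). Finally, medium decanted and CCK-8 diluted 1:10 added.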

[2] = tested on: MGC-803 gastric cancer cell line; test: CCK-8 proliferation inhibition; settings: Homo sapiens, MGC-803, 72 h, concentration of 30 μM
Procedure, shortened: as §1

[3] = tested on: BEL-7402 liver cancer cell line; test: CCK-8 proliferation inhibition; settings: concentration of 30 μM; for inhibition at 30 µM: Homo sapiens, Bel-7402, 72 h; for Inhibition of proliferation, Liver cancer BEL-7402: 72 hours, 30 µM
Procedure, shortened: as §1

[4] = tested on: methicillin-resistant Staphylococcus epidermidis (MRSE); test: MIC, two-fold agar dilution (CLSI), clinical isolates; settings: for Anti-bacterial activity (MIC), strain MRSE 15-1: clinical isolate MRSE 15-1; for Anti-bacterial activity (MIC), strain MRSE 15-2: clinical isolate MRSE 15-2; for Anti-bacterial activity (MIC), strain MRSE 15-3: clinical isolate MRSE 15-3; for Anti-bacterial activity (MIC), strain MRSE 15-7: clinical isolate MRSE 15-7
Procedure, shortened: (§2)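 Following the American Clinical and Laboratory Standards Institute procedure, agar two-fold dilution served to determine minimum inhibitory concentrations.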

[5] = tested on: Streptococcus pneoumoniae (SPN); test: as above
Procedure, shortened: as §2

[6] = tested on: Moraxella catarrhalis (BCA); test: as above
Procedure, shortened: as §2

[7] = tested on: Enterococcus faecium (EFM); test: as above
Procedure, shortened: as §2

[8] = tested on: Enterococcus faecalis (EFA); test: as above
Procedure, shortened: as §2

[9] = tested on: methicillin-sensitive Staphylococcus epidermidis (MSSE); test: as above; settings: for Anti-bacterial activity (MIC), strain MSSE 15-3: clinical isolate MSSE 15-3; for Anti-bacterial activity (MIC), strain MSSE 15-4: clinical isolate MSSE 15-4; for Anti-bacterial activity (MIC), strain MSSE 15-5: clinical isolate MSSE 15-5; for Anti-bacterial activity (MIC), strain MSSE 15-6: clinical isolate MSSE 15-6
Procedure, shortened: as §2

[10] = tested on: methicillin-sensitive Staphylococcus aureus (MSSA); test: as above; settings: for Anti-bacterial activity (MIC), strain MSSA 15-3: clinical isolate MSSA 15-3; for Anti-bacterial activity (MIC), strain MSSA 15-4: clinical isolate MSSA 15-4; for Anti-bacterial activity (MIC), strain MSSA 15-5: clinical isolate MSSA 15-5; for Anti-bacterial activity (MIC), strain MSSA 15-6: clinical isolate MSSA 15-6
Procedure, shortened: as §2

[11] = tested on: methicillin-resistant Staphylococcus aureus (MRSA); test: as above; settings: for Anti-bacterial activity (MIC), strain MRSA 15-1: clinical isolate MRSA 15-1; for Anti-bacterial activity (MIC), strain MRSA 15-2: clinical isolate MRSA 15-2; for Anti-bacterial activity (MIC), strain MRSA 15-3: clinical isolate MRSA 15-3; for Anti-bacterial activity (MIC), strain MRSA 15-4: clinical isolate MRSA 15-4
Procedure, shortened: as §2

[12] = tested on: Escherichia coli (including ESBLs, non-ESBLs); test: as above; settings: for Anti-bacterial activity (MIC), strain ECO+ 15-1: clinical isolate ECO+ 15-1; for Anti-bacterial activity (MIC), strain ECO+ 15-2: clinical isolate ECO+ 15-2; for Anti-bacterial activity (MIC), strain ECO+ 15-3: clinical isolate ECO+ 15-3; for Anti-bacterial activity (MIC), strain ECO+ 15-4: clinical isolate ECO+ 15-4; for Anti-bacterial activity (MIC), strain ECO− 15-1: clinical isolate ECO− 15-1; for Anti-bacterial activity (MIC), strain ECO− 15-2: clinical isolate ECO− 15-2; for Anti-bacterial activity (MIC), strain ECO− 15-3: clinical isolate ECO− 15-3; for Anti-bacterial activity (MIC), strain ECO− 15-4: clinical isolate ECO− 15-4
Procedure, shortened: as §2

[13] = tested on: HCT-116 colorectal cancer cell line; test: CCK-8 proliferation inhibition; settings: concentration of 30 μM, 72 hours, CCK-8; for inhibition at 30 µM: Homo sapiens, HCT-116, 72 h
Procedure, shortened: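 Growth inhibition is read by CCK-8 (1:10 dilution) after 72 h of compound exposure. HCT-116 cells grow in McCoy's 5A containing 10% newborn bovine serum at 2000 cells/well, with 1‰ DMSO as vehicle control.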

[14] = read-out: HCT116 inhibition rate/%

O=C(C[C@@H](CC1CCCC1)C(=O)N1CC2(CC2)C[C@H]1C(=O)Nc1ncccc1F)NO [Example 67]
0.5 µg/mL: Anti-bacterial activity (MIC), strain MRSE 15-1 [4] | Anti-bacterial activity (MIC), strain MRSE 15-2 [4] | Anti-bacterial activity (MIC), strain MRSE 15-3 [4] | Anti-bacterial activity (MIC), strain MRSE 15-7 [4] | Anti-bacterial activity (MIC) ([6]; strain BCA 14-10) | Anti-bacterial activity (MIC), strain MSSE 15-4 [9] | Anti-bacterial activity (MIC), strain MSSE 15-5 [9] | Anti-bacterial activity (MIC), strain MSSA 15-3 [10] | Anti-bacterial activity (MIC), strain MRSA 15-2 [11] | Anti-bacterial activity (MIC), strain MRSA 15-4 [11]
8 µg/mL: Anti-bacterial activity (MIC) ([8]; strain EFA 15-9)
36%: inhibition at 30 µM [1]
39%: inhibition at 30 µM [2]
16 µg/mL: Anti-bacterial activity (MIC), strain ECO+ 15-1 [12] | Anti-bacterial activity (MIC), strain ECO+ 15-2 [12]
0.125 µg/mL: Anti-bacterial activity (MIC), strain MSSE 15-6 [9] | Anti-bacterial activity (MIC), strain MSSA 15-4 [10] | Anti-bacterial activity (MIC), strain MSSA 15-5 [10]
> 50%: inhibition at 30 µM [3]
≥ 30%: inhibition at 30 µM ([13]; Table 5, read-out: Inhibition of proliferation, Colorectal cancer HCT116)
57%: Inhibition of proliferation, Liver cancer BEL-7402 [3]
0.25 µg/mL: Anti-bacterial activity (MIC) ([5]; strain SPN 16-2) | Anti-bacterial activity (MIC) ([5]; strain SPN 16-4) | Anti-bacterial activity (MIC) ([7]; strain EFM 15-5) | Anti-bacterial activity (MIC) ([7]; strain EFM 15-6) | Anti-bacterial activity (MIC), strain MSSE 15-3 [9] | Anti-bacterial activity (MIC), strain MRSA 15-1 [11] | Anti-bacterial activity (MIC), strain MRSA 15-3 [11]
2 µg/mL: Anti-bacterial activity (MIC) ([6]; strain BCA 14-1) | Anti-bacterial activity (MIC) ([6]; strain BCA 14-4) | Anti-bacterial activity (MIC) ([6]; strain BCA 14-5) | Anti-bacterial activity (MIC) ([6]; strain BCA 14-6) | Anti-bacterial activity (MIC) ([6]; strain BCA 14-7) | Anti-bacterial activity (MIC) ([6]; strain BCA 14-8) | Anti-bacterial activity (MIC) ([7]; strain EFM 15-4)
32 µg/mL: Anti-bacterial activity (MIC) ([7]; strain EFM 15-1) | Anti-bacterial activity (MIC) ([8]; strain EFA 15-1) | Anti-bacterial activity (MIC) ([8]; strain EFA 15-2) | Anti-bacterial activity (MIC) ([8]; strain EFA 15-3) | Anti-bacterial activity (MIC) ([8]; strain EFA 15-4) | Anti-bacterial activity (MIC) ([8]; strain EFA 15-5) | Anti-bacterial activity (MIC) ([8]; strain EFA 15-6) | Anti-bacterial activity (MIC), strain MSSA 15-6 [10] | Anti-bacterial activity (MIC), strain ECO+ 15-3 [12] | Anti-bacterial activity (MIC), strain ECO+ 15-4 [12] | Anti-bacterial activity (MIC), strain ECO− 15-1 [12] | Anti-bacterial activity (MIC), strain ECO− 15-2 [12] | Anti-bacterial activity (MIC), strain ECO− 15-3 [12] | Anti-bacterial activity (MIC), strain ECO− 15-4 [12]
44%: inhibition at 30 µM [13, 14]
> 32 µg/mL: Anti-bacterial activity (MIC) ([7]; strain EFM 15-2) | Anti-bacterial activity (MIC) ([7]; strain EFM 15-3)

O=C(C[C@@H](CC1CCCC1)C(=O)N1CC2(CC2)C[C@H]1C(=O)Nc1ccno1)NO [Example 70, (S)-5-((R)-2-(cyclopentylmethyl)-4-(hydroxyamino)-4-oxobutyl)-N-(isoxazol-5-yl)-5-spiro[2.4]heptane-6-carboxamide]
> 50%: inhibition at 30 µM [1] | inhibition at 30 µM [3] | inhibition at 30 µM [13, 14]
4 µg/mL: Anti-bacterial activity (MIC) ([6]; strain BCA 14-7)
16 µg/mL: Anti-bacterial activity (MIC), strain MSSA 15-6 [10] | Anti-bacterial activity (MIC), strain ECO+ 15-1 [12] | Anti-bacterial activity (MIC), strain ECO+ 15-4 [12] | Anti-bacterial activity (MIC), strain ECO− 15-1 [12] | Anti-bacterial activity (MIC), strain ECO− 15-4 [12]
2 µg/mL: Anti-bacterial activity (MIC), strain MRSE 15-2 [4] | Anti-bacterial activity (MIC), strain MRSE 15-3 [4] | Anti-bacterial activity (MIC), strain MRSE 15-7 [4] | Anti-bacterial activity (MIC) ([6]; strain BCA 14-4) | Anti-bacterial activity (MIC) ([6]; strain BCA 14-5) | Anti-bacterial activity (MIC) ([6]; strain BCA 14-6) | Anti-bacterial activity (MIC) ([7]; strain EFM 15-6) | Anti-bacterial activity (MIC), strain MSSA 15-3 [10]
0.25 µg/mL: Anti-bacterial activity (MIC) ([5]; strain SPN 16-4) | Anti-bacterial activity (MIC), strain MSSE 15-6 [9] | Anti-bacterial activity (MIC), strain MSSA 15-5 [10]
0.2 µg/mL: Anti-bacterial activity (MIC) ([7]; strain EFM 15-5)
50%: inhibition at 30 µM [2]
64%: HCT116 inhibition rate/% ([13]; 30 µM)
0.5 µg/mL: Anti-bacterial activity (MIC), strain MRSE 15-1 [4] | Anti-bacterial activity (MIC) ([5]; strain SPN 16-2) | Anti-bacterial activity (MIC), strain MSSE 15-3 [9] | Anti-bacterial activity (MIC), strain MSSA 15-4 [10] | Anti-bacterial activity (MIC), strain MRSA 15-1 [11] | Anti-bacterial activity (MIC), strain MRSA 15-3 [11]
62%: Inhibition of proliferation, Liver cancer BEL-7402 [3]
54%: Inhibition of proliferation, Lung cancer A549 ([1]; 72 hours, 30 µM)
1 µg/mL: Anti-bacterial activity (MIC) ([6]; strain BCA 14-1) | Anti-bacterial activity (MIC) ([6]; strain BCA 14-8) | Anti-bacterial activity (MIC) ([6]; strain BCA 14-10) | Anti-bacterial activity (MIC) ([7]; strain EFM 15-4) | Anti-bacterial activity (MIC) ([8]; strain EFA 15-9) | Anti-bacterial activity (MIC), strain MSSE 15-4 [9] | Anti-bacterial activity (MIC), strain MSSE 15-5 [9] | Anti-bacterial activity (MIC), strain MRSA 15-2 [11] | Anti-bacterial activity (MIC), strain MRSA 15-4 [11]
32 µg/mL: Anti-bacterial activity (MIC) ([7]; strain EFM 15-1) | Anti-bacterial activity (MIC) ([7]; strain EFM 15-2) | Anti-bacterial activity (MIC) ([7]; strain EFM 15-3) | Anti-bacterial activity (MIC) ([8]; strain EFA 15-1) | Anti-bacterial activity (MIC) ([8]; strain EFA 15-2) | Anti-bacterial activity (MIC) ([8]; strain EFA 15-3) | Anti-bacterial activity (MIC) ([8]; strain EFA 15-4) | Anti-bacterial activity (MIC) ([8]; strain EFA 15-5) | Anti-bacterial activity (MIC) ([8]; strain EFA 15-6) | Anti-bacterial activity (MIC), strain ECO+ 15-2 [12] | Anti-bacterial activity (MIC), strain ECO+ 15-3 [12] | Anti-bacterial activity (MIC), strain ECO− 15-2 [12] | Anti-bacterial activity (MIC), strain ECO− 15-3 [12]
